Article PMC12143348, “Rapid and reversible fluorescent probe enables repeated snapshot imaging of AMPA receptors during synaptic plasticity” (Science Advances, 2025)
Entries after “also recorded” stand apart in the source; their conditions may differ.

Columns and labels:
[1] = pH-dependency of fluorescent intensity in GTA buffer (spectrofluorophotometer); type: physicochemical; settings: 2 µM probe in GTA buffer pH 4–10, normalized to pH 10
Procedure: Evaluation of the affinity of PFQX-amine
HEK293T cells were co-transfected with GluA2 flip(Q)-3’UTR and mCherry-F as a transfection marker. After washing the cells with HBS, 30 nM PFQX1(AF488) was added to the dish. Then, PFQX-amine in HBS was step-wisely added to the dish to a final […]
performed with confocal microscopy. Cell surface fluorescent intensity was quantified from the line scans of transfection marker positive cells calculated by ZEN blue software and calculated with subtraction of background. The membrane intensity was fitted with KaleidaGraph to calculate the IC50 value using the following equation:a + (b-a)/(1+(x/c)^d). The Ki value was calculated using the Cheng-Prusoff equation: Ki = IC50/(1+[S]/K d). In the equation, [S] and Kd were the concentration and dissociation constant of PFQX1(AF488), respectively. pH-dependency of fluorescent intensity
Fluorescent intensity was determined by spectrofluorophotometer RF-6000 (Shimadzu). […]
glutaric acid, 0.1 M Tris, 0.1 M 2-amino-2-methyl-1,3-propanediol) to a final concentration of 2 µM. pH value of GTA buffer was adjusted to 4, 5, 6, 7, 8, 9, and 10.
Fluorescent intensity was normalized by the intensity at pH 10.
For the evaluation in cells, HEK293T cells expressing GluA2 or primary cultured hippocampal neurons were used. […]

GluA2flip(R) = target: T1, GluA2flip(R) (Mus musculus, UniProt P23819, DEL765-802/Q607R); test: Concentration-dependent binding of PFQX1(AF488) to GluA2flip(R) expressed alone in HEK293T cells; settings: n = 3–4, read-out: Kd / Affinity of PFQX1(AF488) to GluA2flip(R) expressed alone (–)
T1 construct: expressed in transfected cells; host or cells: HEK293T
T1 sequence (P23819 with tags, fused parts or gaps isoform P23819-4 Q607R/DEL765-802): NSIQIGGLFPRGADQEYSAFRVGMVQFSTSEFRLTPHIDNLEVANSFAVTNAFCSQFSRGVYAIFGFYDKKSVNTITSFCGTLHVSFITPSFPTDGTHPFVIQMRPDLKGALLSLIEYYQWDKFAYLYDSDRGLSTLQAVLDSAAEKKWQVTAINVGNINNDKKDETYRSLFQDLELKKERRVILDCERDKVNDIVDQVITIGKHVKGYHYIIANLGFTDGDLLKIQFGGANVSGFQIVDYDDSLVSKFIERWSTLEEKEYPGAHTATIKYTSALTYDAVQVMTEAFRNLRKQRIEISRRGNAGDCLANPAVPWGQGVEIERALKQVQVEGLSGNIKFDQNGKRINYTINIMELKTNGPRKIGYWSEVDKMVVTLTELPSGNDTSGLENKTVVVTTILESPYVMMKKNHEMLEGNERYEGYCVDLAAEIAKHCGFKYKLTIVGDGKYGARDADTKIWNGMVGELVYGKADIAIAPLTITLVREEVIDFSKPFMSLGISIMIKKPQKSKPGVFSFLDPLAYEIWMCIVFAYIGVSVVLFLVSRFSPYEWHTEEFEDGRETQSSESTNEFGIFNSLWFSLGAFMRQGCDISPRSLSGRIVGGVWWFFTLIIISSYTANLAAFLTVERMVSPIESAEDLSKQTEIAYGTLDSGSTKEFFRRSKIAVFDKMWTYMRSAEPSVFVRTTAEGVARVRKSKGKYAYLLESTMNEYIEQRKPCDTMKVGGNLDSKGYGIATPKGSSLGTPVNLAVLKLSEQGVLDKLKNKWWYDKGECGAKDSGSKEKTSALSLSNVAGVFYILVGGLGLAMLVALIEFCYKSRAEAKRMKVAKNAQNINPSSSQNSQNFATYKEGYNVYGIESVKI
Procedure: (§1) HEK293T cells were cotransfected with plasmids for AMPAR [5′UTR-GluA1^flip(R)-3′UTR, GluA2^flip(Q)-3′UTR, GluA3^flip(Q) (Y454A/R461G), and GluA4^flip(Q)], kainate receptor [GluK2(Q)], auxiliary subunits, or the control vector and transfection marker (EFGP-F or mCherry-F). Fluorophore-ligand conjugates were diluted in Hepes-buffered saline (HBS) buffer [20 mM Hepes (pH 7.4), 107 mM NaCl, 6 mM KCl, 1.2 mM MgSO4, 2 mM CaCl2, and 11.5 mM glucose] and added to the cells. Confocal live imaging was performed with LSM900 (Carl Zeiss) equipped with a 63×, numerical aperture (NA) = 1.4 oil-immersion objective. Fluorescence images were acquired by excitation at 405, 488, 561, or 640 nm derived from diode lasers.
(§2) For evaluating the concentration dependency of fluorophore-ligand conjugates, 0.1 nM probe in HBS was added to the dish. Then, probes in HBS were added stepwise to the dish to a final concentration of 0.3, 1, 3, 10, 30, 100, 300, 1000, and 3000 nM. Cell surface fluorescence intensity was quantified from the line scans of transfection marker positive cells and calculated with subtraction of background by ZEN blue software (Carl Zeiss). […]
(§3) (A) Concentration-dependent binding of PFQX1(AF488) to GluA2 flip(R) expressed with GSG1L or TARP γ7. […] (B) The surface intensity of PFQX1(AF488) was quantified. […]

GluA2flip(R) + GSG1L = target: T2, GluA2flip(R) + GSG1L (Mus musculus, UniProt P23819, DEL765-802/Q607R); test: Concentration-dependent binding of PFQX1(AF488) to GluA2flip(R) expressed with GSG1L in HEK293T cells; settings: n = 3–4, read-out: Kd / Affinity of PFQX1(AF488) to GluA2flip(R) with GSG1L
T2 construct: expressed in transfected cells; host or cells: HEK293T
T2 sequence (P23819 with tags, fused parts or gaps isoform P23819-4 Q607R/DEL765-802): as above
T2 sequence (D3Z7H4 whole entry partner): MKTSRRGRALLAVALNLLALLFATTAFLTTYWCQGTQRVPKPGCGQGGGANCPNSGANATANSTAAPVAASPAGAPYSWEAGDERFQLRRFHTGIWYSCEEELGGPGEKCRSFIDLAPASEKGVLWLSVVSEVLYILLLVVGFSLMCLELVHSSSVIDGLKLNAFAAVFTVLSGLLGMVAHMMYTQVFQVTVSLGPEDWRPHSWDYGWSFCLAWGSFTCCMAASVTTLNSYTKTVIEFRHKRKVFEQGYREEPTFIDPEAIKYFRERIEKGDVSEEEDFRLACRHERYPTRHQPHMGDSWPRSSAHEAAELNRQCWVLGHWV
Procedure: as §1, §2, §3

[2] = Solubility of PFQX(Dye)s in HBS; type: physicochemical; settings: aqueous buffer; dissolved in HBS
Procedure: aAffinity was evaluated in HEK293T cells expressing GluA2 flip(Q).
S3A. bPFQX(Dye)sweredissolved in HBS.
cAffinity to native AMPARs were evaluated usingprimary cultured hippocampal

GluK2(Q) = target: T3, GluK2(Q) (Rattus norvegicus, UniProt P42260); test: Confocal live imaging of HEK293T cells expressing GluK2(Q) treated with PFQX1(AF488); type: binding; settings: even at high concentration (300 nM)
T3 construct: expressed in transfected cells; host or cells: HEK293T
T3 sequence (P42260 32-908): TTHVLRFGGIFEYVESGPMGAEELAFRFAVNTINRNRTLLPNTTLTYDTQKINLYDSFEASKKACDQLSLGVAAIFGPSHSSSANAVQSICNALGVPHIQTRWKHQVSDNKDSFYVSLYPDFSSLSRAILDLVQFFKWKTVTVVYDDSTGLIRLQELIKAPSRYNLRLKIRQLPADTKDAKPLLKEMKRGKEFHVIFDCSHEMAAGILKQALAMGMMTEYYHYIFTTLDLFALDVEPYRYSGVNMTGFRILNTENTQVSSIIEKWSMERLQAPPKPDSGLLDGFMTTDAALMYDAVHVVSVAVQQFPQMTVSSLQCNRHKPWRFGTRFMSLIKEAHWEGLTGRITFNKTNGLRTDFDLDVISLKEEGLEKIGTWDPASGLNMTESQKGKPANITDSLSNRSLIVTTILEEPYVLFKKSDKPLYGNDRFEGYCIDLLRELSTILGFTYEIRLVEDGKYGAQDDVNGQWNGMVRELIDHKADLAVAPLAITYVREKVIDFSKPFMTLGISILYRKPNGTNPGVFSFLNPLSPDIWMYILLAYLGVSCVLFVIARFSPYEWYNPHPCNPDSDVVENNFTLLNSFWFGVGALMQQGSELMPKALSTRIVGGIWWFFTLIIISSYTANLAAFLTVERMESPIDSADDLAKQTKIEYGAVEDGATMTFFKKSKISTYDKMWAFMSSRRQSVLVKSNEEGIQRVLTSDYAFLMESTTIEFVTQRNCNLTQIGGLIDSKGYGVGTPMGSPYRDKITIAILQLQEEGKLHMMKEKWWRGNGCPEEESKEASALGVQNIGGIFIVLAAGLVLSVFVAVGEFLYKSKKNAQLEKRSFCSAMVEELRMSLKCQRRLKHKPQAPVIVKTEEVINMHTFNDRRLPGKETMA
Procedure: as §1
Anti-HA mCherry-F Merge1.0
Fig. S8. Sub-micromolar concentrations of PFQX1(AF488) fail to visualize cell surface kainate receptors in HEK293T cells. (A) HA-tag staining of GluK2(Q).
GluK2(Q) expressing cells were treated with anti-HA antibody (Alexa Fluor 647 conjugate) for 15 min. Scale bar, 10 µm. (B) Fluorescence Ca2+ assay to analyze the inhibition of 100 µM kainic acid-induced response by PFQX-amine. HEK293T cells were transfected with GluK2(Q). The intensity was normalized to that at 0.1 µM PFQX-amine (n = 3). (C) Representative results of confocal live cell imaging of HEK293T cells expressing GluK2(Q) are shown. mCherry-F was used as a transfection marker. […]

GluA3 (Y454A/R461G) = target: T4, GluA3 (Y454A/R461G) (Mus musculus, UniProt Q9Z2W9, R461G/Y454A); test: Concentration-dependent binding of PFQX1(AF488), confocal live imaging of HEK293T cells expressing GluA3; settings: n = 3, read-out: Kd / Affinity of PFQX1(AF488) to GluA3
T4 construct: expressed in transfected cells; host or cells: HEK293T
T4 sequence (Q9Z2W9 23-888 Y454A/R461G): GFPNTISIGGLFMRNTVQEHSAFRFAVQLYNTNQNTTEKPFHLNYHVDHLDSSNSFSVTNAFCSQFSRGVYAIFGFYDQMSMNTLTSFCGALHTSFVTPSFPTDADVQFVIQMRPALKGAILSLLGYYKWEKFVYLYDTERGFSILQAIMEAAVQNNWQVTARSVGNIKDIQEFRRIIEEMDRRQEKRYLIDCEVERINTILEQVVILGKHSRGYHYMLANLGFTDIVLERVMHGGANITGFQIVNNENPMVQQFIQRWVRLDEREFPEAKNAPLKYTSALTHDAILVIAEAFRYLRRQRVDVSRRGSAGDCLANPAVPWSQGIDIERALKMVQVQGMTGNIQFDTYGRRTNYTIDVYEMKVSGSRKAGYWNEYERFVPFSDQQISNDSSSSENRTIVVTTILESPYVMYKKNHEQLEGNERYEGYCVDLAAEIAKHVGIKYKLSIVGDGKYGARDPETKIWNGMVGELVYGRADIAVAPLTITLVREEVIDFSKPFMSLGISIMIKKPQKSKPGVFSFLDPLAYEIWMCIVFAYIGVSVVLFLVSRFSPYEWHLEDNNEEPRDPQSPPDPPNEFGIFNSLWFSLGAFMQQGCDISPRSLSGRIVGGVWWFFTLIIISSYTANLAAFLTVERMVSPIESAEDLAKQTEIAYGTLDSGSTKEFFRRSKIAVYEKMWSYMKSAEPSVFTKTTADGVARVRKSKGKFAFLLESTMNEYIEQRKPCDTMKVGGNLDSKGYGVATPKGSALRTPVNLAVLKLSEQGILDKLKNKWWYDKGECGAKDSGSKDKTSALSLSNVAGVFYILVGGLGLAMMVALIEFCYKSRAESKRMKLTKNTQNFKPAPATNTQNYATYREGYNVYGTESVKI
Procedure: as §1
For evaluating the concentration dependency of fluorophore-ligand conjugates, 0.1 nM probe in HBS was added to the dish. Then, probes in HBS were added stepwise to the dish to a final concentration of 0.3, 1, 3, 10, 30, 100, 300, 1000, and 3000 nM. Cell surface fluorescence intensity was quantified from the line scans of transfection marker positive cells and calculated with subtraction of background by ZEN blue software (Carl Zeiss). The membrane intensity was fitted with KaleidaGraph (Synergy software) to calculate the equilibrium constant value using the following equation: a + (b − a)/(1 + (x/c)^d). The equilibrium constant is regarded as the Kd in this study.

- Kd (GluA2flip(R)): 32.3 ± 4.7 nM
- Kd (GluA2flip(R) + GSG1L): 34.5 ± 12.4 nM
- solubility [2]: > 1470 µM
- visualization of GluK2 (GluK2(Q)): failed to visualize GluK2
- Kd (GluA3 (Y454A/R461G)): 30.6 ± 7 nM
Compound: N=c1ccc2c(-c3ccc(C(=O)NCc4ccn(-c5cc6c(cc5C(F)(F)F)[nH]c(=O)c(=O)n6CC(=O)O)c4)cc3C(=O)O)c3ccc(N)c(S(=O)(=O)O)c3oc-2c1S(=O)(=O)O [PFQX1(AF488)]
- pH dependency of the fluorescence intensity [1]: relatively unaffected at pH 5 to 10; also recorded: pH-independent manner in the pH 5 to 10 range
